Reference: patent US5359138A (Zaidan Hojin Biseibutsu Kagaku Kenkyu KaI, priority 1989, dated 1994)
Entries after “also recorded” stand apart in the source; their conditions may differ. Starred links: 1 amine or outer side, 2 acyl side, 3 side chain; linkers in the order of their positions; H or OH if unused. Non-standard residues stand in square brackets, D forms with d. Residues, ends and D or L forms follow the SMILES beside them. ξ: configuration not given here. *: point of attachment. ξ(3-Amino-2-oxopentanoyl) = CCC(N[*:1])C(=O)C(=O)[*:2]; Abu(ψCOCO) = CC[C@H](N[*:1])C(=O)C(=O)[*:2]; Butanoyl(4-Ph) = O=C(CCCc1ccccc1)*; Cbz = O=C(OCc1ccccc1)*; OBn = c1ccc(CO*)cc1

Tests used:
prolylendopeptidase = target: T1, prolylendopeptidase (Sus scrofa, UniProt P23687); experiment: Determination of anti-prolylendopeptidase activity; format: biochemical, pig; conditions: for PPCE = Propylendopeptidase inhibition activity, IC50: pig kidney enzyme, substrate Z-Gly-Pro-beta-naphthylamide, 37° C., 30 minutes, pH 7.8
T1 construct: a pig kidney sample was subjected to a fractionation operation with ammonium sulfate; from tissue; host or cells: pig kidney
Description: The determination of anti-prolylendopeptidase activity was conducted by a modified method based on the method by Yoshimoto et al (Biochim. Biophys. Acta, vol. 569, pages 184-192 (1979)).
A test tube was charged with a solution mixture consisting of (a) 0.2 ml of a solution of 0.5 mM N-benzyloxycarbonyl-L-glycyl-L-prolyl-beta-naphthylamide in 40% dioxane; (b) 0.5 ml of a 0.05M Tris-HCl buffer solution (pH 7.8); and (c) 0.25 ml of an aqueous solution containing the test material. The solution mixture was heated to 37° C. for 3 minutes, and admixed with 0.05 ml of a prolylendopeptidase solution to effect a reaction at 37° C. for 30 minutes. The prolylendopeptidase employed was that which had been obtained according to a modified method based on the enzyme purification method by Koida, Walter et al. (J. Biol. Chem. Vol. 251, pages 7593-7599 (1976), wherein a pig kidney sample was subjected to a fractionation operation with ammonium sulfate, and wherein a purification was effected by a column chromatography employing a DEAE-Sephadex A-50 column.
After the completion of the reaction, the reaction mixture was admixed with 1 ml of a 1M sodium acetate buffer solution containing 10% of Tween-20 and 0.1% of Fast Garnet GBC salt. The reaction mixture was allowed to stand at room temperature for 15 minutes, and then measured for the light absorption at 525 nm (a). At the same time, a control sample, which was free of the test compounds and contained only the buffer solution, was measured for the light absorption (b).
The prolylendopeptidase inhibition activity was determined by employing the formula: […]

cathepsin B = cathepsin B (Homo sapiens, UniProt P07858); experiment: Cathepsin B inhibition activity (method by Knight); format: biochemical
Description: The elastase inhibition activity was determined according to a method by Mumford, R. A. et al (J. Biol. Chem., 225, 2227 (1980)). The cathepsin B inhibition activity was determined according to a method by Knight, C. G. (Biochem. J., 189, 447-453 (1980)).

Solubility of poststatin = format: physicochemical; conditions: solvents as named; listed as poststatin
mice = experiment: Toxicity, LD50 (i.v.) in mice; format: in vivo
Description: The compounds according to the invention have a low toxicity. In the case of mice, LD50 (i.v.) of poststatin is at least 200 mg/kg. Therefore, it can be expected that the compounds according to the invention will be useful, for instance, as a drug for treating amnesia and autoimmune diseases including systemic erythematosus and the like.

T1 sequence (P23687 whole entry): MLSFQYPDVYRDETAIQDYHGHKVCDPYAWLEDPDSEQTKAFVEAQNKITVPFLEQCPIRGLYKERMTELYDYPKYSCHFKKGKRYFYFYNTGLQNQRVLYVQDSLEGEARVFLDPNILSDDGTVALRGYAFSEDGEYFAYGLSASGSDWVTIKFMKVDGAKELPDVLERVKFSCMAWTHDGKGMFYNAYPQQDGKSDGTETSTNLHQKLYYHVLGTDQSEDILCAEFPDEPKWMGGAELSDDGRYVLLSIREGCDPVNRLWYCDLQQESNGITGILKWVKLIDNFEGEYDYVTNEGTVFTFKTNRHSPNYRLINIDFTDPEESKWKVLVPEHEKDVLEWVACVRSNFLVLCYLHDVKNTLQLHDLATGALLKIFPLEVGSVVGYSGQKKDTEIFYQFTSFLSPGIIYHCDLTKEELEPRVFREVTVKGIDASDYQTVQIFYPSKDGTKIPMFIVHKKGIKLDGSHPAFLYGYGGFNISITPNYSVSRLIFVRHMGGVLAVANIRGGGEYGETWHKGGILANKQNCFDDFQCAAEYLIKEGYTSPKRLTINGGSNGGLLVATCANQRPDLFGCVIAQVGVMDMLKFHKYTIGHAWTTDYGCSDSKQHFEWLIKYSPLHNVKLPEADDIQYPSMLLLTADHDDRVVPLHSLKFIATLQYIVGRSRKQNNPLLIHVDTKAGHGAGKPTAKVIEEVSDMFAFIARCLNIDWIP

Row | PPCE = Propylendopeptidase inhibition activity, IC50 (prolylendopeptidase) [µg/mL] | CatB = Cathepsin B inhibition activity, IC50 (cathepsin B) [µg/mL] | Compound | IC50 (prolylendopeptidase) [nM] | IC50 (cathepsin B; read-out: CatB = Cathepsin B inhibition activity, IC50) [nM] | Solubility (Solubility of poststatin) | LD50 (i.v.) (mice)
1 | 0.11 | > 100 | CCC(NC(=O)[C@H](Cc1ccccc1)NC(=O)OCc1ccccc1)C(=O)C(=O)N[C@H](CC(C)C)C(=O)N[C@H](C(=O)OC(C)(C)C)C(C)C (mixture of isomers) [Compound 3, Z-L-phenylalanyl-(RS)-3-amino-2-oxopentanoyl-D-leucyl-L-valine t-butyl ester] | – | – | – | –
2 | 0.17 | 72 | CCC(NC(=O)[C@@H]1CCCN1C(=O)[C@@H](NC(=O)CCCc1ccccc1)C(C)C)C(=O)C(=O)N[C@H](CC(C)C)C(=O)N[C@H](C(=O)O)C(C)C (stereo partly drawn) [Compound 7, phenylbutanoyl-L-valyl-L-propyl-3-amino-2-oxopentanoyl-D-leucyl-L-valine] ({Butanoyl(4-Ph)}-VP[ξ(3-Amino-2-oxopentanoyl)][dL]V-OH) | – | – | – | –
3 | 1 | 100 | CC[C@H](NC(=O)[C@@H](NC(=O)[C@@H](NC(=O)OCc1ccccc1)C(C)C)C(C)C)C(=O)C(=O)N[C@H](CC(C)C)C(=O)N[C@H](C(=O)OCc1ccccc1)C(C)C [Compound 2, Z-L-valyl-L-valyl-(3S)-3-amino-2-oxo-pentanoyl-D-leucyl-L-valine benzyl ester] (Cbz-VV[Abu(ψCOCO)][dL]V-OBn) | – | – | – | –
4 | 0.007 | 0.64 | CCC(NC(=O)[C@H](Cc1ccccc1)NC(=O)OCc1ccccc1)C(=O)C(=O)N[C@H](CC(C)C)C(=O)N[C@H](C(=O)O)C(C)C (mixture of isomers) [Compound 4, Z-L-phenylalanyl-(RS)-3-amino-2-oxopentanoyl-D-leucyl-L-valine] | – | – | – | –

The next lines start with the molecule.

Row | Compound | PPCE = Propylendopeptidase inhibition activity, IC50 (prolylendopeptidase) [µg/mL] | CatB = Cathepsin B inhibition activity, IC50 (cathepsin B) [µg/mL] | IC50 (prolylendopeptidase) [nM] | IC50 (cathepsin B; read-out: CatB = Cathepsin B inhibition activity, IC50) [nM] | Solubility (Solubility of poststatin) | LD50 (i.v.) (mice)
5 | CCC(NC(=O)[C@@H]1CCCN1C(=O)[C@@H](N)C(C)C)C(=O)C(=O)N[C@H](CC(C)C)C(=O)N[C@H](C(=O)O)C(C)C (stereo partly shown) [Compound 6] | – | – | 556 | > 185000 | – | –
6 | CC[C@H](NC(=O)[C@@H](NC(=O)[C@@H](N)C(C)C)C(C)C)C(=O)C(=O)N[C@H](CC(C)C)C(=O)N[C@H](C(=O)O)C(C)C [Compound 1, L-valyl-L-valyl-(3S)-3-amino-2-oxo-pentanoyl-D-leucyl-L-valyl] (H-VV[Abu(ψCOCO)][dL]V-OH) | 0.03 | 2.1 | – | – | soluble in water, methanol, and dimethyl sulfoxide; also recorded: insoluble in acetone, ethyl acetate, chloroform and hexane | at least 200 mg/kg
7 | CCC(NC(=O)[C@@H](NC(=O)OC(C)(C)C)C(C)C)C(=O)C(=O)N[C@H](CC(C)C)C(=O)OC(C)(C)C (mixture of isomers) [Compound 5, BOC-L-valyl-(RS)-3-amino-2-oxopentanoyl-D-leucyl t-butyl ester] | 0.04 | 2.2 | – | – | – | –
